Assay results from the NIST ThermoML archive (doi:10.1021/acs.jced.6b00428).
Numbers after ± are expanded uncertainties.

Test: refractive index (Na D-line) (dimensionless)
Details: 101.33 kPa, Liquid, Standard Abbe refractometry

SMILES	refractive index (293.15 K)	refractive index (298.15 K)
CC(=O)OC(C)C [1-methylethyl ethanoate]	1.3771 ± 0.0024	
CCO [ethanol]		1.3616 ± 0.0024
O [water]		1.3328 ± 0.0024
